In patent US20080051418A1, “Arylalkanoic Acid Derivative” (priority 2004, published 2008):

Row | Structure (SMILES) | melting point [°C]
1 | CC(C)Oc1ccc(CCCOc2cc(CCC(=O)O)n(-c3ccccc3)n2)c(Oc2ccc(Cl)cc2Cl)n1 [Example 171, 3-(3-{3-[2-(2,4-dichlorophenoxy)-6-isopropoxypyridin-3-yl]propoxy}-1-phenyl-1H-pyrazol-5-yl)propanoic acid] | 60 to 62
2 | CC(C)Oc1ccc(CCCOc2cc(CCC(=O)O)n(-c3ccccc3)n2)c(Oc2ccc(C(F)(F)F)cn2)c1 [Example 172, 3-{3-[3-(4-isopropoxy-2-{[5-(trifluoromethyl)pyridin-2-yl]oxy}phenyl)propoxy]-1-phenyl-1H-pyrazol-5-yl}propanoic acid] | 80 to 82
3 | CC(C)Oc1ccc(CCCOc2nn(C)cc2CC(=O)O)c(OCc2ccc(Cl)cc2Cl)c1 [Example 174, [3-(3-{2-[(2,4-dichlorobenzyl)oxy]-4-isopropoxyphenyl}propoxy)-1-methyl-1H-pyrazol-4-yl]acetic acid] | 102 to 103
4 | CC(C)Oc1ccc(CCCOc2nn(Cc3ccccc3)cc2CC(=O)O)c(OCc2ccc(Cl)cc2Cl)c1 [Example 175, [1-benzyl-3-(3-{2-[(2,4-dichlorobenzyl)oxy]-4-isopropoxyphenyl}propoxy)-1H-pyrazol-4-yl]acetic acid] | 103 to 104
5 | CCOc1nn(Cc2ccc(Cl)cc2Cl)cc1CCCOc1cc(CCC(=O)O)n(Cc2ccccc2)n1 [Example 182, 3-(1-benzyl-3-{3-[1-(2,4-dichlorobenzyl)-3-ethoxy-1H-pyrazol-4-yl]propoxy}-1H-pyrazol-5-yl)propanoic acid] | 84 to 85
6 | CCOc1nn(Cc2ccc(Cl)cc2Cl)cc1CCCOc1cc(CCC(=O)O)n(-c2ccccc2)n1 [Example 183, 3-(3-{3-[1-(2,4-dichlorobenzyl)-3-ethoxy-1H-pyrazol-4-yl]propoxy}-1-phenyl-1H-pyrazol-5-yl)propanoic acid] | 132 to 133
7 | CC(C)c1nn(Cc2ccc(Cl)cc2Cl)cc1CCCOc1cc(CCC(=O)O)n(-c2ccccc2)n1 [Example 190, 3-(3-{3-[1-(2,4-dichlorobenzyl)-3-isopropyl-1H-pyrazol-4-yl]propoxy}-1-phenyl-1H-pyrazol-5-yl)propanoic acid] | 105 to 107
8 | CC(C)Oc1cc(CCCOc2cc(CCC(=O)O)n(Cc3ccccc3)n2)n(Cc2ccc(Cl)cc2Cl)n1 [Example 191, 3-(1-benzyl-3-{3-[1-(2,4-dichlorobenzyl) -3-isopropoxy-1H-pyrazol-5-yl]propoxy}-1H-pyrazol-5-yl)propanoic acid] | 123 to 126
9 | CC(C)Oc1cc(CCCOc2cc(CCC(=O)O)n(-c3ccccc3)n2)n(Cc2ccc(Cl)cc2Cl)n1 [Example 192, 3-(3-{3-[1-(2,4-dichlorobenzyl)-3-isopropoxy-1H-pyrazol-5-yl]propoxy}-1-phenyl-1H-pyrazol-5-yl)propanoic acid] | 145.5 to 147.5
10 | CCOc1nn(Cc2ccc(Cl)cc2Cl)cc1CCCOc1nn(-c2ccccc2)cc1CCC(=O)O [Example 193, 3-(3-{3-[1-(2,4-dichlorobenzyl)-3-ethoxy-1H-pyrazol-4-yl]propoxy}-1-phenyl-1H-pyrazol-4-yl)propanoic acid] | 114 to 118
11 | CC(C)Oc1cc(COc2cc(CCC(=O)O)n(C)n2)cc(COc2ccc(Cl)cc2Cl)c1 [Example 194, 3-[3-({3-[(2,4-dichlorophenoxy)methyl]-5-isopropoxybenzyl}oxy)-1-methyl-1H-pyrazol-5-yl]propanoic acid] | 105 to 106
12 | CC(C)Oc1cc(COc2cc(CCC(=O)O)n(-c3ccccc3)n2)cc(COc2ccc(Cl)cc2Cl)c1 [Example 195, 3-[3-({3-[(2,4-dichlorophenoxy)methyl]-5-isopropoxybenzyl}oxy)-1-phenyl-1H-pyrazol-5-yl]propanoic acid] | 108 to 110
13 | CC(C)Oc1cc(CCCOc2cc(CCC(=O)O)n(C)n2)cc(COc2ccc(Cl)cc2Cl)c1 [Example 197, 3-[3-(3-{3-[(2,4-dichlorophenoxy)methyl]-5-isopropoxyphenyl}propoxy)-1-methyl-1H-pyrazol-5-yl]propanoic acid] | 116 to 120
14 | O=C(O)CCc1cc(OCc2cc(COc3ccc(Cl)cc3Cl)cc(OCc3ccccc3)c2)nn1-c1ccccc1 [Example 198, 3-[3-({3-(benzyloxy)-5-[(2,4-dichlorophenoxy)methyl]benzyl}oxy)-1-phenyl-1H-pyrazol-5-yl]propanoic acid] | 126 to 130
15 | CCOCc1cc(COc2cc(CCC(=O)O)n(-c3ccccc3)n2)cc(Oc2ncc(C(F)(F)F)cc2Cl)c1 [Example 199, 3-(3-{[3-{[3-chloro-5-(trifluoromethyl)pyridin-2-yl]oxy}-5-(ethoxymethyl)benzyl]oxy}-1-phenyl-1H-pyrazol-5-yl)propanoic acid] | 124 to 128

Results, then the compound that gave them:

Row | melting point [°C] | Structure (SMILES)
16 | 88 to 89 | CC(C)Oc1ccc(CCCOc2cc(CCC(=O)O)n(C)n2)c(OCc2ccc(C(F)(F)F)cc2)c1 [Example 167, 3-{3-[3-(4-isopropoxy-2-{[4-(trifluoromethyl)benzyl]oxy}phenyl)propoxy]-1-methyl-1H-pyrazol-5-yl}propanoic acid]
17 | 75 to 76 | CCn1nc(OCCCc2ccc(OC(C)C)cc2OCc2ccc(C(F)(F)F)cc2)cc1CCC(=O)O [Example 168, 3-{1-ethyl-3-[3-(4-isopropoxy-2-{[4-(trifluoromethyl)benzyl]oxy}phenyl)propoxy]-1H-pyrazol-5-yl}propanoic acid]
18 | 110 to 111 | COCCOc1ccc(CCCOc2cc(CCC(=O)O)n(C)n2)c(OCc2ccc(C(F)(F)F)cc2)c1 [Example 169, 3-{3-[3-(4-(2-methoxyethoxy)-2-{[4-(trifluoromethyl)benzyl]oxy}phenyl)propoxy]-1-methyl-1H-pyrazol-5-yl}propanoic acid]
19 | 112 to 113 | CCn1nc(OCCCc2ccc(OCCOC)cc2OCc2ccc(C(F)(F)F)cc2)cc1CCC(=O)O [Example 170, 3-{1-ethyl-3-[3-(4-(2-methoxyethoxy)-2-{[4-(trifluoromethyl)benzyl]oxy}phenyl)propoxy]-1H-pyrazol-5-yl}propanoic acid]
20 | 110 to 111 | CCc1cccc(CC(=O)O)c1OCCn1cc(C(=O)NCc2ccc(C(F)(F)F)cc2)c(OC(C)C)n1 [Example 184, (3-ethyl-2-{2-[3-isopropoxy-4-({[4-(trifluoromethyl)benzyl]amino}carbonyl)-1H-pyrazol-1-yl]ethoxy}phenyl)acetic acid]
21 | 183 to 184 | CCc1cnn(CC(=O)O)c1OCCn1cc(C(=O)NCc2ccc(C(F)(F)F)cc2)c(OC(C)C)n1 [Example 185, (4-ethyl-5-{2-[3-isopropoxy-4-({[4-(trifluoromethyl)benzyl]amino}carbonyl)-1H-pyrazol-1-yl]ethoxy}-1H-pyrazol-1-yl)acetic acid]
22 | 107.5 to 108.5 | CCc1cccc(CC(=O)O)c1OCCCn1cc(C(=O)NCc2ccc(C(F)(F)F)cc2)c(OC(C)C)n1 [Example 186, (3-ethyl-2-{3-[3-isopropoxy-4-({[4-(trifluoromethyl)benzyl]amino}carbonyl)-1H-pyrazol-1-yl]propoxy}phenyl)acetic acid]
23 | 76.5 to 77.5 | CCc1cccc(CC(=O)O)c1OCCn1cc(CCOc2ncc(C(F)(F)F)cc2Cl)c(OC(C)C)n1 [Example 188, (2-{2-[4-(2-{[3-chloro-5-(trifluoromethyl)pyridin-2-yl]oxy}ethyl)-3-isopropoxy-1H-pyrazol-1-yl]ethoxy}-3-ethylphenyl)acetic acid]
